Bounds are passed on as bounds.

The subject of one assay is MGC-803. Put plainly: Anticancer activity against human MGC803 cells assessed as inhibition of proliferation after 72 hrs by MTT assay. Type of assay: functional, cell-based. As to conditions: MGC-803, 72 h. In general terms: Tetrazolium dyes change colour on reduction, which living cells bring about.
A further assay relates to MCF7. The assay is described as follows: Anticancer activity against human MCF7 cells assessed as inhibition of proliferation after 72 hrs by MTT assay. Type of assay: functional, cell-based. The following applies: MCF7, 72 h.
The nature of assay [1]: Anticancer activity against human EC109 cells assessed as inhibition of proliferation after 72 hrs by MTT assay. Type of assay: functional, cell-based. The following applies: ECa-109, 72 h.
Assay [2] is described as follows: Anticancer activity against mouse B16F10 cells assessed as inhibition of proliferation after 72 hrs by MTT assay. Format: functional, cell-based. The following applies: B16-F10, 72 h.
Assay [3] is described as follows: Cytotoxicity against human GES-1 cells assessed as inhibition of proliferation after 72 hrs by MTT assay. As to conditions: GES1, 72 h. Format: cell-based.

As usually defined, the IC50 is the concentration that gives 50% inhibition. As for `COc1ccc(Nc2nc(SCc3cn(CC(=O)NC(=O)Nc4ccccn4)nn3)nc(-c3ccc(C(C)C)cc3)c2C#N)cc1`, the IC50 in the assay with MGC-803 was above 64 µM; in the assay on MCF7, above 64 µM; in assay [1], 5.42 µM; in assay [2], 0.36 µM.
Turning to `Cc1ccc(Nc2nc(SCc3cn(CC(=O)NC(=O)Nc4ccccn4)nn3)nc(-c3ccccc3)c2C#N)cc1`, the IC50 was 7.87 µM in the assay on MGC-803, above 64 µM in the assay on MCF7, 24.6 µM in assay [1] and 3.3 µM in assay [2].
For `CC(C)c1ccc(-c2nc(SCc3cn(CC(=O)NC(=O)Nc4ccccn4)nn3)nc(Nc3ccc(F)cc3)c2C#N)cc1`, in that order: 17.5 µM, above 64 µM, above 64 µM and 7.25 µM.
In the same order, the values of `CC(C)c1ccc(-c2nc(SCc3cn(CC(=O)NC(=O)Nc4ccccn4)nn3)nc(Nc3ccccc3Cl)c2C#N)cc1` are 19.7 µM, 43.7 µM, 23.4 µM and 6.79 µM.
In the case of `CC(C)c1ccc(-c2nc(SCc3cn(CC(=O)NC(=O)Nc4ccccn4)nn3)nc(Nc3cccc(Cl)c3)c2C#N)cc1`, the IC50 in the assay on MGC-803 was above 64 µM; in the assay on MCF7, 18 µM; in assay [1] it was 13.3 µM; in assay [2], 1.13 µM.
For `Cc1ccccc1Nc1nc(SCc2cn(CC(=O)NC(=O)Nc3ccccn3)nn2)nc(-c2ccc(C(C)C)cc2)c1C#N`, the concentration for half-maximal inhibition (IC50) in the assay with MGC-803 was 19 µM; with MCF7 it was above 64 µM; in assay [1], 7.23 µM; in assay [2], 18.6 µM.
Regarding `COc1ccc(Nc2nc(SCc3cn(CC(=O)NC(=O)Nc4ccccn4)nn3)nc(-c3ccc(C)cc3)c2C#N)cc1`, the IC50 was 35.7 µM in assay [3]; 1.7 µM in the assay with MGC-803; 23.4 µM with MCF7; 5.87 µM in assay [1]; 8.75 µM in assay [2].
As for `COc1cc(-c2nc(SCc3cn(CC(=O)NC(=O)Nc4ccccn4)nn3)nc(Nc3ccc(C(C)C)cc3)c2C#N)cc(OC)c1OC`, the IC50 in the assay with MGC-803 is 35.5 µM; in the assay on MCF7 it was 30.9 µM; in assay [1], above 64 µM; in assay [2], 1.21 µM.
On to `Cc1ccc(Nc2nc(SCc3cn(CC(=O)NC(=O)Nc4ccccn4)nn3)nc(-c3ccc(Br)cc3)c2C#N)cc1`, for which the IC50 in the assay with MGC-803 amounted to 13.9 µM; in the assay with MCF7 it was 14.4 µM; in assay [1] it was 7.92 µM; in assay [2], 8.16 µM.
For the molecule `COc1cc(-c2nc(SCc3cn(CC(=O)NC(=O)Nc4ccccn4)nn3)nc(Nc3cccc(C(F)(F)F)c3)c2C#N)cc(OC)c1OC`, the IC50 is above 64 µM in assay [3]; 8.21 µM with MGC-803; 8.14 µM with MCF7; above 64 µM in assay [1]; 24.4 µM in assay [2].
For `Cc1ccc(Nc2nc(SCc3cn(CC(=O)NC(=O)Nc4ccccn4)nn3)nc(-c3ccc(Cl)cc3)c2C#N)cc1`, the IC50 in the assay on MGC-803 came out at 24 µM; with MCF7, 27 µM; in assay [1] it was 13.1 µM; in assay [2], 1.32 µM.
Take `Cc1ccc(-c2nc(SCc3cn(CC(=O)NC(=O)Nc4ccccn4)nn3)nc(Nc3cccc(C(F)(F)F)c3)c2C#N)cc1`: the IC50 was 7.58 µM in the assay on MGC-803, 6.12 µM in the assay with MCF7, 32.3 µM in assay [1] and 9.58 µM in assay [2].
For the molecule `Cc1ccc(-c2nc(SCc3cn(CC(=O)NC(=O)Nc4ccccn4)nn3)nc(Nc3ccc(C(C)C)cc3)c2C#N)cc1`, the concentration for half-maximal inhibition (IC50) was above 64 µM in assay [3]; 19.3 µM in the assay with MGC-803; above 64 µM in the assay on MCF7; 7.45 µM in assay [1]; 0.035 µM in assay [2].
For `O=c1[nH]cc(F)c(=O)[nH]1` [FLUOROURACIL], the IC50 came out at 8.43 µM in the assay with MGC-803, 9.12 µM with MCF7, 11.6 µM in assay [1] and 1.43 µM in assay [2].
On to `Cc1ccc(-c2nc(SCc3cn(CC(=O)NC(=O)Nc4ccccn4)nn3)nc(Nc3cccc(Cl)c3)c2C#N)cc1`, for which the IC50 in the assay with MGC-803 turned out to be 7.89 µM; with MCF7 it was 14.9 µM; in assay [1], 25.6 µM; in assay [2] it was 7.58 µM.
Regarding `COc1cc(-c2nc(SCc3cn(CC(=O)NC(=O)Nc4ccccn4)nn3)nc(Nc3ccc(Cl)cc3)c2C#N)cc(OC)c1OC`, the IC50 in the assay on MGC-803 was 17.5 µM; in the assay with MCF7, 45.1 µM; in assay [1] it was above 64 µM; in assay [2] it was 1.11 µM.
Regarding `CC(C)c1ccc(-c2nc(SCc3cn(CC(=O)NC(=O)Nc4ccccn4)nn3)nc(Nc3cccc(C(F)(F)F)c3)c2C#N)cc1`, the 50% inhibitory concentration (IC50) is above 64 µM with MGC-803, 8.62 µM in the assay on MCF7, 24.2 µM in assay [1] and 1.7 µM in assay [2].
Consider `Cc1ccc(Nc2nc(SCc3cn(CC(=O)NC(=O)Nc4ccccn4)nn3)nc(-c3ccc(C)cc3)c2C#N)cc1`, for which the IC50 in the assay on MGC-803 was 9.89 µM; in the assay on MCF7 it was 39.6 µM; in assay [1] it was above 64 µM; in assay [2], 1.01 µM.
Consider `CC(C)c1ccc(-c2nc(SCc3cn(CC(=O)NC(=O)Nc4ccccn4)nn3)nc(Nc3ccc(Cl)cc3)c2C#N)cc1`, for which the IC50 in the assay on MGC-803 is above 64 µM; in the assay with MCF7, above 64 µM; in assay [1], 11.2 µM; in assay [2], 0.86 µM.
As to `CC(C)c1ccc(-c2nc(SCc3cn(CC(=O)NC(=O)Nc4ccccn4)nn3)nc(Nc3ccccc3F)c2C#N)cc1`, the IC50 in the assay on MGC-803 was above 64 µM; in the assay with MCF7, above 64 µM; in assay [1], 15.5 µM; in assay [2], 8.38 µM.
Turning to `CC(C)c1ccc(Nc2nc(SCc3cn(CC(=O)NC(=O)Nc4ccccn4)nn3)nc(-c3ccc(Br)cc3)c2C#N)cc1`, the IC50 in assay [3] is above 64 µM; with MGC-803 it was 15.6 µM; in the assay on MCF7 it was 30.6 µM; in assay [1], above 64 µM; in assay [2], 0.042 µM.
As to `N#Cc1c(Nc2cccc(C(F)(F)F)c2)nc(SCc2cn(CC(=O)NC(=O)Nc3ccccn3)nn2)nc1-c1ccc(Br)cc1`, the IC50 in assay [3] amounted to 38.7 µM; in the assay with MGC-803, 3.6 µM; in the assay on MCF7, 3.11 µM; in assay [1], 2.96 µM; in assay [2], 4.55 µM.
On to `COc1ccccc1Nc1nc(SCc2cn(CC(=O)NC(=O)Nc3ccccn3)nn2)nc(-c2ccc(C(C)C)cc2)c1C#N`, for which the IC50 is above 64 µM with MGC-803, 19.3 µM in the assay with MCF7, 8.96 µM in assay [1] and 34.6 µM in assay [2].
For `CC(C)c1ccc(-c2nc(SCc3cn(CC(=O)NC(=O)Nc4ccccn4)nn3)nc(Nc3ccccc3)c2C#N)cc1`, in that order: 15.8 µM, above 64 µM, above 64 µM and 14.3 µM.
Take `CC(C)c1ccc(-c2nc(SCc3cn(CC(=O)NC(=O)Nc4ccccn4)nn3)nc(Nc3cccc([N+](=O)[O-])c3)c2C#N)cc1`: the IC50 is above 64 µM with MGC-803, 25.9 µM with MCF7, 31.3 µM in assay [1] and 26.4 µM in assay [2].
Turning to `Cc1ccc(Nc2nc(SCc3cn(CC(=O)NC(=O)Nc4ccccn4)nn3)nc(-c3ccc(C(C)C)cc3)c2C#N)cc1`, the IC50 is above 64 µM in assay [3]; 3.36 µM in the assay on MGC-803; above 64 µM in the assay with MCF7; 6.7 µM in assay [1]; 3.06 µM in assay [2].
With `CC(C)c1ccc(Nc2nc(SCc3cn(CC(=O)NC(=O)Nc4ccccn4)nn3)nc(-c3ccc(Cl)cc3)c2C#N)cc1`, the IC50 in the assay on MGC-803 was 16.9 µM; with MCF7 it was 39.9 µM; in assay [1] it was above 64 µM; in assay [2], 1.59 µM.
With `CC(C)c1ccc(Nc2nc(SCc3cn(CC(=O)NC(=O)Nc4ccccn4)nn3)nc(-c3ccc(C(C)C)cc3)c2C#N)cc1`, the IC50 in the assay on MGC-803 was 15.8 µM; with MCF7 it was 28.6 µM; in assay [1], 2.49 µM; in assay [2] it was 4.38 µM.
As to `COc1cc(-c2nc(SCc3cn(CC(=O)NC(=O)Nc4ccccn4)nn3)nc(Nc3cccc(Cl)c3)c2C#N)cc(OC)c1OC`, the IC50 in the assay on MGC-803 is 15.4 µM; in the assay with MCF7, 24 µM; in assay [1], above 64 µM; in assay [2], 1.42 µM.
On to `Cc1cccc(Nc2nc(SCc3cn(CC(=O)NC(=O)Nc4ccccn4)nn3)nc(-c3ccc(C(C)C)cc3)c2C#N)c1`, for which the IC50 in the assay with MGC-803 was 25.3 µM; in the assay with MCF7, above 64 µM; in assay [1], 7.32 µM; in assay [2], 1.65 µM.
With `COc1ccccc1Nc1nc(SCc2cn(CC(=O)NC(=O)Nc3ccccn3)nn2)nc(-c2ccc(C)cc2)c1C#N`, the IC50 in assay [3] was above 64 µM; in the assay on MGC-803, 7.96 µM; in the assay with MCF7, 19.7 µM; in assay [1], 7.85 µM; in assay [2], 8.58 µM.
For `CC(C)c1ccc(-c2nc(SCc3cn(CC(=O)NC(=O)Nc4ccccn4)nn3)nc(Nc3ccccc3O)c2C#N)cc1`, the IC50 in the assay on MGC-803 was 16.4 µM; with MCF7, above 64 µM; in assay [1], 7.38 µM; in assay [2], 16.1 µM.
